Assay results reported in US8906908B2, “Hydroxybupropion analogues for treating drug dependence” (priority 2010, dated 2014).
Like-named read-outs stand apart in the source and are kept apart here.

How the values were obtained:
[1] = biological target: T1, muscle-type nAChR (α1β1γδ- or α1*-nAChR) (Homo sapiens, UniProt P02708+P07510+P11230+Q07001); assay: 86Rb+ efflux nAChR functional assay, TE671/RD cells; type: cell-based; conditions: parentheses = S.E.M. as multiplication/division factor
T1 construct: Cells of the TE671/RD line naturally expresses muscle-type nAChR; endogenous in cells; host or cells: TE671/RD cells
Excerpt: (§1) Cell Lines and Culture: Human embryonic kidney (HEK-293) cells stably expressing human DAT, NET or SERT were maintained as previously described in Eshleman, A. J.; Carmolli, M.; Cumbay, M.; Martens, C. R.; Neve, K. A.; Janowsky, A., J. Pharmacol. Exp. Ther. 1999, 289, (2), 877-885. Use was made of several human cell lines that naturally or heterologously express specific, functional, human nAChR subtypes. Cells of the TE671/RD line naturally expresses muscle-type nAChR (a1β1γδ- or α1*-nAChR), and SH-SY5Y neuroblastoma cells naturally expresses autonomic α3β4*-nAChRs (containing α3, β4, probably α5, and sometimes β2 subunits). Different clones of SH-EP1 epithelial cell lines have been engineered to heterologously express either α4β2-nAChR, which are thought to be the most abundant, high affinity nicotine-binding nAChR in mammalian brain, or α4β4-nAChR, another possible brain nAChR subtype (SH-EP1-hα4β2 or α4β4 cells, respectively). These cells were maintained as low passage number (1-26 from our frozen stocks) cultures to ensure stable expression of native or heterologously-expressed nAChR as previously described (see Lukas, R. J.; Fryer, J. D.; Eaton, J. B.; L., G. C., Some methods for studies of nicotinic acetylcholine receptor pharmacology, in Nicotinic receptors and the Nervous System, Levine, E. D., Ed. CRC Press: Boca Raton, 2002; pp 3-27, incorporated herein by reference in its entirety). Cells were passaged once weekly by splitting just-confluent cultures 1/300 (TE671/RD), 1/5 (SH-SY5Y), or 1/20 (transfected SH-EP1) in serum-supplemented medium to maintain log-phase growth.
(§2) After cells had adhered (generally overnight, but no sooner than 4 h later), the medium was removed and replaced with 250 μL per well of complete medium supplemented with ˜350,000 cpm of ^86Rb^+ (PerkinElmer Life and Analytical Sciences, Boston, Mass.) and counted at 40% efficiency using Cerenkov counting (TriCarb 1900 liquid scintillation analyzer[…]; PerkinElmer Life Sciences).
(§3) After at least 4 h and typically overnight, ^86Rb^+ efflux was measured using the “flip-plate” technique. See Lukas, R. J.; Fryer, J. D.; Eaton, J. B.; L., G. C., Some methods for studies of nicotinic acetylcholine receptor pharmacology, in Nicotinic receptors and the Nervous System, Levine, E. D., Ed. CRC Press: Boca Raton, 2002; pp 3-27, incorporated herein by reference in its entirety). Briefly, after aspiration of the bulk of ^86Rb^+ loading medium from each well of the “cell plate,” each well containing cells was rinsed 3× with 2 mL of fresh ^86Rb^+ efflux buffer (130 mM NaCl, 5.4 mM KCl, 2 mM CaCl2, 5 mM glucose, 50 mM HEPES, pH 7.4) to remove extracellular ^86Rb^+. Following removal of residual rinse buffer by aspiration, the flip-plate technique was used again to simultaneously introduce 1.5 mL of fresh efflux buffer containing drugs of choice at indicated final concentrations from a 24-well “efflux/drug plate” into the wells of the cell plate. After a 5 min incubation, the solution was “flipped” back into the efflux/drug plate, and any remaining buffer in the cell plate was removed by aspiration. Cells remaining in the cell plate were lysed and suspended by addition of 1.5 mL of 0.1 M NaOH, 0.1% sodium dodecyl sulfate to each well.
(§4) Similarly, the sum of ^86Rb^+ in cell plates and efflux/drug plates also determined the efficiency of ^86Rb^+ loading (the percentage of applied ^86Rb^+ actually loaded into cells).
(§5) Specific efflux was then taken as the difference in control samples between total and non-specific ^86Rb^+ efflux. Any intrinsic agonist activity of test drugs was ascertained using samples containing test drug only at different concentrations and was normalized, after subtraction of non-specific efflux, to specific efflux in test drug-free, control samples.

[2] = system: α3β4*-nAChR; assay: 86Rb+ efflux nAChR functional assay, SH-SY5Y cells; type: cell-based, human
Excerpt: as §1, §2, §3, §4, §5

[3] = biological target: T2, α4β2-nAChR (Homo sapiens, UniProt P17787+P43681); assay: 86Rb+ efflux nAChR functional assay, SH-EP1-hα4β2 cells; type: cell-based
T2 construct: expressed in transfected cells; host or cells: SH-EP1 epithelial cells (SH-EP1-hα4β2)
Excerpt: as §1, §2, §3, §4, §5

[4] = nAChR inhibition IC50 α1*β1, EC80-EC90 carbamylcholine
[5] = EC80-EC90 carbamylcholine, SH-EP1-hα4β2, parentheses = S.E.M. as multiplication/division factor, read-out: nAChR inhibition IC50 α4β2
[6] = EC80-EC90 carbamylcholine, read-out: nAChR inhibition IC50 α1*β1

T1 sequence (P02708 21-457): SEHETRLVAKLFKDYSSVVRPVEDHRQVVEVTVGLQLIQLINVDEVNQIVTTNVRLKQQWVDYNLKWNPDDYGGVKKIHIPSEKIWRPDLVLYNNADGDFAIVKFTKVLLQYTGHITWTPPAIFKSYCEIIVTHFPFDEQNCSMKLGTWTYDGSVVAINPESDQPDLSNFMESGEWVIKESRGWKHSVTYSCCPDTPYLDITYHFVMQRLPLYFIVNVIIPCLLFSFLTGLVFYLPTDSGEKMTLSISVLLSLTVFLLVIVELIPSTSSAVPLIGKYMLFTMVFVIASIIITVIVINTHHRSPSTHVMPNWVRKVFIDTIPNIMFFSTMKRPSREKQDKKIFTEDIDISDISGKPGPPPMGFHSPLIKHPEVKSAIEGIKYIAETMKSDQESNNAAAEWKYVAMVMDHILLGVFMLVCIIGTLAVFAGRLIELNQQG
T1 sequence (P11230 24-501): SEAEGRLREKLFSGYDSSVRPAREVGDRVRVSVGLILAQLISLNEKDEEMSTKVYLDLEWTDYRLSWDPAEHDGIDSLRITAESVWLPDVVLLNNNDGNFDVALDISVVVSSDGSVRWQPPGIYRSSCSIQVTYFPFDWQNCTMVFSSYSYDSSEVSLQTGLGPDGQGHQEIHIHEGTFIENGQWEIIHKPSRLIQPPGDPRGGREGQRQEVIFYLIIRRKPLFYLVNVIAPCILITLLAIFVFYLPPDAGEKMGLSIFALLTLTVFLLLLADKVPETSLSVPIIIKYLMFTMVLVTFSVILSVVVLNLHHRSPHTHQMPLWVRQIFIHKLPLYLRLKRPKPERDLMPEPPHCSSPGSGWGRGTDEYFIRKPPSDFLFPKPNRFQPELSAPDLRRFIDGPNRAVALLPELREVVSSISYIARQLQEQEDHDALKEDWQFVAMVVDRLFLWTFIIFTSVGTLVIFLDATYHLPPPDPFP
T1 sequence (P07510 23-517): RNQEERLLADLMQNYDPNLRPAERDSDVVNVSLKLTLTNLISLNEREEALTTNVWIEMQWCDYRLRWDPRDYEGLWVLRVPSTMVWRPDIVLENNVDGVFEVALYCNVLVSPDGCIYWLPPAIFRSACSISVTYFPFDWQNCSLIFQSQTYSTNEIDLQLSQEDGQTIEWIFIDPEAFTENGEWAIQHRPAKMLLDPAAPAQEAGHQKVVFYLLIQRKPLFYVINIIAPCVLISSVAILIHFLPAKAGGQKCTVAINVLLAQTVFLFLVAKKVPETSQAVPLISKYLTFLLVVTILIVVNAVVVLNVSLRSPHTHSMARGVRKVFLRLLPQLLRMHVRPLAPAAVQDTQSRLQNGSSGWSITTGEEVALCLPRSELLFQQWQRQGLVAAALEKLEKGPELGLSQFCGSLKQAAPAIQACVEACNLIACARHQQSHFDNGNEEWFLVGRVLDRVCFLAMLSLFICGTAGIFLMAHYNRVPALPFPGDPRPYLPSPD
T1 sequence (Q07001 22-517): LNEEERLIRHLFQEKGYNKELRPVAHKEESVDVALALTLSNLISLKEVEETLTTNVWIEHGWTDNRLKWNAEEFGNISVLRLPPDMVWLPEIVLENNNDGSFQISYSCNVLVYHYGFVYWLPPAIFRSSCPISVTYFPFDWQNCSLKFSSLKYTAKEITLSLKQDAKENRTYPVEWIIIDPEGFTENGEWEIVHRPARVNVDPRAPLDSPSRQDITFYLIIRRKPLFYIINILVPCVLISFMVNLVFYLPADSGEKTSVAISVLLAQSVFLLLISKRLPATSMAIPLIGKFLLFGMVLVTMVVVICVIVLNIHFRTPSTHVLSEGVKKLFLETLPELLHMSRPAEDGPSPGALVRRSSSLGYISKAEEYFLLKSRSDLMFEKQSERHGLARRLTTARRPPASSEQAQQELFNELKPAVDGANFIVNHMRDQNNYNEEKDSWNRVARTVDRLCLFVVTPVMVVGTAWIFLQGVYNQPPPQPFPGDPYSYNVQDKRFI
T2 sequence (P43681 29-627 limits assumed): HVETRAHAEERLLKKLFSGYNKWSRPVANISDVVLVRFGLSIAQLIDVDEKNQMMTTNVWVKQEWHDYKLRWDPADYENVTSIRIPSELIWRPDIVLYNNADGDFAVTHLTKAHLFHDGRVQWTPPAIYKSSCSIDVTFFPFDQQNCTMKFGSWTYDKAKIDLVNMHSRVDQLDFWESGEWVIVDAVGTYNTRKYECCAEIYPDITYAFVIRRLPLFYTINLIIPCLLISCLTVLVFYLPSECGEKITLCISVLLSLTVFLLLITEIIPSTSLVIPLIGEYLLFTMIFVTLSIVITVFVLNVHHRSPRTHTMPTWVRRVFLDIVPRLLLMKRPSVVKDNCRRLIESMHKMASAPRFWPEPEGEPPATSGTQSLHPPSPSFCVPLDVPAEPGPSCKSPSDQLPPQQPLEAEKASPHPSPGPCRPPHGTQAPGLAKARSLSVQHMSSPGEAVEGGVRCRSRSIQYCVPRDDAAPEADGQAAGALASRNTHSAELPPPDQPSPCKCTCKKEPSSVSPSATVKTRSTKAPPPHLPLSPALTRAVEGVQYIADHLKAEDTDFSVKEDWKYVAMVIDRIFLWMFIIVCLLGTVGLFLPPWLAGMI
T2 sequence (P17787 26-502): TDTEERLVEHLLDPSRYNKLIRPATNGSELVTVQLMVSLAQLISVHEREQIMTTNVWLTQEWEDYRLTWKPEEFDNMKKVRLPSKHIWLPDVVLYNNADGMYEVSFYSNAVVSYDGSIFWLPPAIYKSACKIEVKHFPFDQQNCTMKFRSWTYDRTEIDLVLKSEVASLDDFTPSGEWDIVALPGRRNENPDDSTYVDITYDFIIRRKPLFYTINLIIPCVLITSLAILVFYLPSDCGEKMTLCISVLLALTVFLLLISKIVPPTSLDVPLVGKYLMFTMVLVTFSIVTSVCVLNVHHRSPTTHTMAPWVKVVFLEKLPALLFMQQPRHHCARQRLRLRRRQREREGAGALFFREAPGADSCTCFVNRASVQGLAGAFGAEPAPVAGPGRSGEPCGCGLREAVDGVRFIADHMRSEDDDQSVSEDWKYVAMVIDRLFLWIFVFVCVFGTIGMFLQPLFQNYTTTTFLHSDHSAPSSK

Structure (SMILES) | IC50 [1, 4] [µM] | selectivity for α3β4*- over α4β2-nAChR [2] [fold] | IC50 [3, 5] [µM] | IC50 [3] [µM] | IC50 [1, 6] [µM] | selectivity for inhibition of α4β2-nAChR over DA uptake inhibition [3] [fold] | selectivity for α4β2-nAChR over other nAChR subtypes [3] [fold]
CC1NC(C)(C)COC1(O)c1ccc(Cl)c(Cl)c1 (racemic) [Compound 4n, 2-(3,4-Dichlorophenyl)-3,5,5-trimethylmorpholin-2-ol] | 7.2 | ~8 | 20 | – | – | – | –
CC1NC(C)(C)COC1(O)c1cc(Cl)cc(Cl)c1 (racemic) [Compound 4p, 2-(3,5-Dichlorophenyl)-3,5,5-trimethylmorpholin-2-ol] | 7.2 | – | 11 | – | – | – | –
C[C@@H]1NC(C)(C)CO[C@@]1(O)c1ccccc1 [Compound 4b, (2S,3S)-2-Phenyl-3,5,5-trimethylmorpholin-2-ol] | > 100 | – | 6.4 | < 10 | – | – | –
C[C@@H]1NC(C)(C)CO[C@@]1(O)c1cccc(F)c1 [Compound 4c, (2S,3S)-2-(3-Fluorophenyl)-3,5,5-trimethylmorpholin-2-ol] | > 100 | – | 1.3 | – | – | – | –
C[C@@H]1NC(C)(C)CO[C@@]1(O)c1cccc(Br)c1 [Compound 4d, (2S,3S)-2-(3-Bromophenyl)-3,5,5-trimethylmorpholin-2-ol] | 5.9 to 19 | – | 0.55 | – | 18 | ~6 | –
Cc1cccc([C@]2(O)OCC(C)(C)N[C@H]2C)c1 [Compound 4e, (2S,3S)-2-(m-Tolyl)-3,5,5-trimethylmorpholin-2-ol] | > 33 | – | 6 | – | 33 | – | –
COc1cccc([C@]2(O)OCC(C)(C)N[C@H]2C)c1 [Compound 4f, (2S,3S)-2-(3-Methoxyphenyl)-3,5,5-trimethylmorpholin-2-ol] | – | – | 10 | < 10 | 49 | – | –
C[C@@H]1NC(C)(C)CO[C@@]1(O)c1cccc([N+](=O)[O-])c1 [Compound 4g, (2S,3S)-2-(3-Nitrophenyl)-3,5,5-trimethylmorpholin-2-ol] | – | – | 4.8 | < 10 | 96 | – | ~3
C[C@@H]1NC(C)(C)CO[C@@]1(O)c1ccc(F)cc1 [Compound 4h, (2S,3S)-2-(4-Fluorophenyl)-3,5,5-trimethylmorpholin-2-ol] | – | – | 12 | – | 69 | – | –
C[C@@H]1NC(C)(C)CO[C@@]1(O)c1ccc(Cl)cc1 [Compound 4i, (2S,3S)-2-(4-Chlorophenyl)-3,5,5-trimethylmorpholin-2-ol] | – | – | 9.2 | – | 19 | – | –
Cc1ccc([C@]2(O)OCC(C)(C)N[C@H]2C)cc1 [Compound 4j, (2S,3S)-3,5,5-Trimethyl-2-(4-methylphenyl)morpholin-2-ol] | – | – | 12 | – | 20 | – | –
COc1ccc([C@]2(O)OCC(C)(C)N[C@H]2C)cc1 [Compound 4k, (2S,3S)-2-(4-Methoxyphenyl)-3,5,5-trimethylmorpholin-2-ol] | – | – | 27 | – | 25 | – | –
C[C@@H]1NC(C)(C)CO[C@@]1(O)c1ccc(-c2ccccc2)cc1 [Compound 4l, (2S,3S)-2-Biphenyl-4-yl-3,5,5-trimethylmorpholin-2-ol] | 5.9 to 19 | – | 1.8 | < 10 | 5.9 | – | –
C[C@@H]1NC(C)(C)CO[C@@]1(O)c1ccc(F)c(F)c1 [Compound 4m, (2S,3S)-2-(3,4-Difluorophenyl)-3,5,5-trimethylmorpholin-2-ol] | – | – | 12 | – | 36 | – | –
C[C@@H]1NC(C)(C)CO[C@@]1(O)c1cc(F)cc(F)c1 [Compound 4o, (2S,3S)-2-(3,5-Difluorophenyl)-3,5,5-trimethylmorpholin-2-ol] | – | – | 6.3 | < 10 | 23 | – | –
C[C@@H]1NC(C)(C)CO[C@@]1(O)c1cccc2ccccc12 [Compound 4q, (2S,3S)-2-(Naphthalen-1-yl)-3,5,5-trimethylmorpholin-2-ol] | – | – | 9 | – | 6.6 | – | –
C[C@@H]1NC(C)(C)CO[C@@]1(O)c1ccc2ccccc2c1 [Compound 4r, (2S,3S)-2-(Naphthalen-2-yl)-3,5,5-trimethylmorpholin-2-ol] | – | – | 6.5 | – | 11 | – | –
CC[C@@H]1NC(C)(C)CO[C@@]1(O)c1cccc(Cl)c1 [Compound 4s, (2S,3S)-2-(3-Chlorophenyl)-3-ethyl-5,5-dimethylmorpholin-2-ol] | – | – | 2.9 | – | 14 | – | –
C[C@@H]1N(C)C(C)(C)CO[C@@]1(O)c1cccc(Cl)c1 [Compound 4u, (2S,3S)-2-(3-Chlorophenyl)-3,4,5,5-tetramethylmorpholin-2-ol] | > 33 | – | 7.1 | – | 57 | – | –
C[C@@H]1N(C)C(C)(C)CO[C@@]1(O)c1ccc(Cl)cc1 [Compound 4v, (2S,3S)-2-(4-Chlorophenyl)-3,4,5,5-tetramethylmorpholin-2-ol] | > 33 | – | 42 | – | 43 | – | –
